# Data from article PMC4436800 (Frontiers in Neuroscience, 2015).
# pEC50: −log10 of the molar value.
# Target: T1, Rhopr5HTR2b (R. prolixus serotonin type 2b receptor) (Rhodnius prolixus, UniProt A0A0H4TRR1)
# T1 construct: gene 5HT-R2; complete open reading frame (Genbank KP325472) in pcDNA3.1, transiently expressed in CHOK1-aeq cells
# T1 sequence (A0A0H4TRR1 1-703): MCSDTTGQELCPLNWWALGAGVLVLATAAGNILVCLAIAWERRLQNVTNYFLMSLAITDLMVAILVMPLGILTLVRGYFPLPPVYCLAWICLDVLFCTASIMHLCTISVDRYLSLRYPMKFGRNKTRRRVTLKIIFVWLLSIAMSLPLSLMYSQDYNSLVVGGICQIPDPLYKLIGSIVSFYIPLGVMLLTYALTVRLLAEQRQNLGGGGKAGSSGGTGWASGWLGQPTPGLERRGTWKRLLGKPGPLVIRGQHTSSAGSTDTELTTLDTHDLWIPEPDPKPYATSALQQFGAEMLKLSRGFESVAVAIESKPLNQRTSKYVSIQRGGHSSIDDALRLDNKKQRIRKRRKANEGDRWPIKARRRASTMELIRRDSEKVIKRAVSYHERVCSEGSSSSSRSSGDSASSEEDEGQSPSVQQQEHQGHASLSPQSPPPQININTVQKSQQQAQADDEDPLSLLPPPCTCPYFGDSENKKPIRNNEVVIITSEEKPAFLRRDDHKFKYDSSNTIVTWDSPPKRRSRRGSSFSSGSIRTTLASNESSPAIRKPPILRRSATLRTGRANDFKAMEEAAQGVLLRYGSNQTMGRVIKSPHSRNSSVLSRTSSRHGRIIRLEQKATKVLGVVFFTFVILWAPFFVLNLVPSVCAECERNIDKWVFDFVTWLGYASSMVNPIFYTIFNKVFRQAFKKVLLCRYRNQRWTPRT
# Test: aequorin luminescence, inhibition of […] serotonin response by […] antagonist
# Format: cell-based
row,SMILES,% inhibition at 10 μM (range for all five antagonists)
1,CN1CCC(=C2c3ccccc3C=Cc3ccccc32)CC1 [cyproheptadine],~ 70–50 % inhibition at 10 μM (range for all five antagonists)
2,O=C(c1ccc(F)cc1)C1CCN(CCn2c(=O)[nH]c3ccccc3c2=O)CC1 [ketanserin],~ 70–50 % inhibition at 10 μM (range for all five antagonists)
3,CN1CCN2c3ccccc3Cc3ccccc3C2C1 (stereo not drawn) [mianserin],~ 70–50 % inhibition at 10 μM (range for all five antagonists)
4,CC(C)NCC(O)COc1cccc2ccccc12 (stereo not drawn) [propranolol],~ 70–50 % inhibition at 10 μM (range for all five antagonists)
5,O=C(CCCN1CCC2(CC1)C(=O)NCN2c1ccccc1)c1ccc(F)cc1 [spiperone],~ 70–50 % inhibition at 10 μM (range for all five antagonists)

# Target: T1, Rhopr5HTR2b (R. prolixus serotonin type 2b receptor)
# Test: aequorin calcium luminescence assay, agonist dose-response in transfected CHOK1-aeq cells
# Format: cell-based
row,SMILES,pEC50
1,CC(N)Cc1c[nH]c2ccc(O)cc12 (stereo not drawn) [alpha-methyl serotonin],5.49
